Measurements from patent US20040132648A1, “Remedies and/or preventives for conformational diseases” (priority 2001, published 2004).
Like-named read-outs stand apart in the source and are kept apart here.

Experiments:
[1] = test system: PC12 cells; assay: Neuroprotective action against β-amyloid, viable cell count / survival rate by WST-8 method; format: cell-based, rat; design: key to Neuroprotective action: +, P < 0.05 when compared with the no neuropeptide-added group; settings: for relationship between concentration and neuroprotective action against β-amyloid: neuropeptides at various concentrations
Method: An experiment was performed similarly to Example 5, and then the neuroprotective action against cell death by β-amyloid of the following PACAP-related neuropeptides (peptides 1, 2, 4, 5, 7, 8, 15, 16, 17, 19, 21, 26, 27, 28, 29, 30, 31, 32, 33, 34, 35, 36, 37, 38 and 39) and VIP-related neuropeptides (peptides 3, 9, 10, 11, 12, 13, 14, 18, 20, 22, 23, 24 and 25) was confirmed. Specifically, amyloid (50 μM) and each of the various PACAP-related neuropeptides and VIP-related neuropeptides were added to the cultured PC12 cells. The number of […] calculated by the WST-8 method, so that comparison and examination was performed for the neuroprotective action of these various peptides against amyloid. If the neuropeptides had neuroprotective action, a clear difference in viable cell count can be observed between cases in which neuropeptides were added and cases in which neuropeptides were not added. In PC12 cells added with each of the various neuropeptides, a case wherein a higher cell survival rate (P<0.05) was observed compared with groups in which neuropeptides had not been added, was determined as having neuroprotective action. The results are shown in Table 1 and Table 2. β-amyloid was added to PC12 cells that had been cultured similarly to Example 5. At this time, neuropeptides PACAP27, VIP and humanin, and a cell-permeable cAMP derivative were allowed to respectively co-exist, so that the effect of these neuropeptides against cell death by β-amyloid was confirmed. Cell death was examined by evaluating cell count using the WST-8 method, and then by calculating cell survival rate. […] In the presence of β-amyloid, approximately 70% of the cells died. […] The neuroprotective action of humanin, a recently found human-derived neuroprotective substance (Proc Natl Acad Sci USA (2001) 98 (11) 6336-6341), was also examined. […] At this time, neuropeptides at various concentrations were allowed to co-exist, so that the relationship between the neuroprotective action and the concentration was investigated. Cells were calculated by the WST-8 method, and then the extent to which cell death by β-amyloid could be attenuated was expressed numerically.

[2] = test system: PC12 cells; format: cell-based, rat
[3] = test system: caspase-3; assay: Caspase-3 activating action of β-amyloid and its suppression (Ac-DEVD-AMC substrate); format: cell-based, rat; settings: 10^−5 M β-amyloid; PACAP 10^−9 M; FIG. 7
Method: PC12 cells that had been cultured almost similarly to Example 4 were cultured in a 24-well plate (2×10^5 cells/well). 10^−5 M β-amyloid was added to the plate. At this time, cAMP derivative (10^−4 M) and neuropeptide PACAP (10^−9 M) were added respectively, and then the action of activating caspase-3, an apoptosis-related enzyme, was examined. The caspase-3 activating action was examined using Ac-DEVD-AMC, a caspase-3 specific substrate. […] Further, by the addition of neuropeptide PACAP, an incomplete, approximately 50% suppressive effect was shown. […] Taking into consideration that this suppressive action is not complete, other action mechanisms may also be involved.

[4] = test system: PC12 cells

Substance	Neuroprotective action ([1]; VIP-related neuropeptide 10^−7 M, amyloid (50 μM), cell survival rate vs no peptide)	neuroprotective action against cell death by β-amyloid (cell survival rate) ([1]; co-existing with β-amyloid, PACAP27 10^−9 M, FIG. 5)	relationship between concentration and neuroprotective action against β-amyloid ([1]; β-amyloid, FIG. 6)	degree of neuroprotective action against abnormal prion (106-126) [2]	neuroprotective action relative to that of VIP ([1]; β-amyloid, FIG. 6)	concentration at which the neuroprotective effect was strongest ([1]; β-amyloid, various concentrations, FIG. 6)	degree of neuroprotective action against abnormal prion (106-126) ([2]; 50 μM abnormal prion (106-126), neuropeptides at various concentrations, FIG. 2)	suppressive effect on caspase-3 activation by β-amyloid [3]	cell death (lactate dehydrogenase released to the medium) [4]
VIP (HSDAVFTDNYTRLRKQMAVKKYLNSILN) [Peptide 3]	+	showed neuroprotective action against β-amyloid although the effect was weaker than that of PACAP27	showed strong neuroprotective action at relatively high concentrations	showed neuroprotective action at concentrations higher than that of PACAP					
Pituitary Adenylate Cyclase Activating Polypeptide [PACAP]			showed neuroprotective action even at an extremely low concentration		at least 1×10^4 fold	10^−9 to 10^−13 M	even at an extremely low concentrations, PACAP showed a certain degree of neuroprotective action	approximately 50%	
Prion (106-126)									cell death occurs depending on the concentration
